Marks after values point to notes of the source that are not given here. Where no end group is shown, it is not given here.
Legend:
[1] = Ex vivo stability in human serum; type: in vitro ADME; details: human serum (Sigma), lipids removed by centrifugation, pre-incubated 15 min at 37°C, peptide 10 µg/mL, HPLC, logarithm-linear regression, mean ± SD, n=5
Method: Human serum was purchased from Sigma (St. Louis, MO, USA). […] The half-lives of CATH2, TP5, and CbTP (10 µg/mL) were evaluated in vitro following incubation at 37°C in human serum at different time points. The samples were collected into prechilled tubes containing 1 mL of acidic acetone (hydrochloric acid/acetone/H2O, 1:40:5, by volume) and centrifuged at 2,000 ×g for 20 min at 4°C.
The obtained precipitates were dried in vacuo, after which the dried precipitates were dissolved in 0.5 mL of 1 M acetic acid. The peptide analysis was carried out according to the protocol for the study of TP5 using HPLC ([26]). The half-lives of the target peptides were calculated by a logarithm-linear regression analysis of the peptide concentrations.

recombinant TLR2 = molecular target: T1, recombinant TLR2 (Homo sapiens, UniProt O60603); assay: Surface plasmon resonance binding to immobilized TLR2; details: SPR, ProteOn XPR36, GLH chip, 25°C, PBS with 1% Tween 20; CbTP 0-10 μM; 1:1 model; read-out: association rate constant Ka
T1 construct: purchased R&D Systems
T1 sequence (O60603 21-784, species assumed): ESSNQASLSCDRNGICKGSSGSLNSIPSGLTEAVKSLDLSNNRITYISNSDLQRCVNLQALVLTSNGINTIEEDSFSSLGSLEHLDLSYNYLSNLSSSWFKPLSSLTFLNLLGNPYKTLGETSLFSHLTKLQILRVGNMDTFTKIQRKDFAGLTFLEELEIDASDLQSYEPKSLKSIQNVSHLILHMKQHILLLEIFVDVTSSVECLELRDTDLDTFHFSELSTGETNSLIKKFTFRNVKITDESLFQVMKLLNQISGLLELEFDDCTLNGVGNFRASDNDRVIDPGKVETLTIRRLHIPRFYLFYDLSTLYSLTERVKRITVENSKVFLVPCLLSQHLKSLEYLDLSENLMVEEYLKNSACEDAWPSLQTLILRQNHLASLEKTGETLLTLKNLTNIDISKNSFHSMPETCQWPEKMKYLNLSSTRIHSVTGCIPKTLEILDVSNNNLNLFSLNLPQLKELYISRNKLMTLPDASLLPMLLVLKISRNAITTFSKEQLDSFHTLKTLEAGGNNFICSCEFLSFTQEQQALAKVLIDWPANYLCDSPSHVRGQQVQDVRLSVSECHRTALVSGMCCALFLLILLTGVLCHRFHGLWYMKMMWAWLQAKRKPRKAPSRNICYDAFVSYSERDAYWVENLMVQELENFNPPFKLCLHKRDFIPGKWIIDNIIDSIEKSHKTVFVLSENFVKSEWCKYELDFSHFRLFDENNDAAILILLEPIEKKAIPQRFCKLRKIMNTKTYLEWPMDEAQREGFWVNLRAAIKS
Method: Surface plasmon resonance (SPR) experiments were performed using a ProteOn XPR36 instrument (Bio-Rad, Hercules, CA, USA) with a ProteOn GLH sensor chip (Bio-Rad) at 25°C. The running buffer (PBS with 1% Tween 20) was continuously passed into reaction chamber. An SPR sensing chip with recombinant TLR2 (R&D Systems, Minneapolis, MN, USA) was immobilized by amino coupling to capture CbTP, as described in the manufacturer’s protocol. The binding affinity of CbTP to the TLR2-covered surface was examined in varying concentrations of the CbTP peptide (0, 1.25, 2.5, 5, and 10 μM). The running buffer was injected into the empty channels as a reference. To regenerate the chip surface at the end of each experiment, 10 mM Gly-HCl buffer (pH 2.5) was injected. Data analysis was conducted using ProteOn manager software (version 2.0). The binding curves were processed for the start injection alignment and baseline. The reference-subtracted sensorgram was then fitted to the curves labeling a homogeneous 1:1 model and protein surface data were grouped together to fit the association (K a) and dissociation (K d) rate constants. The equilibrium dissociation constant (KD) for the peptide-TLR2 interaction was calculated using the following equation: […]

Sequence	t1/2 in human serum [1]	kon (recombinant TLR2)
RFGRFLRKIRRFRRKDVY [CbTP]	353 ± 41.3^a min	3.61e+08 M⁻¹ s⁻¹
RFGRFLRKIRRFRPKVTITIQGSARFG [CATH2, Cathelicidin-2, reference compound]	302 ± 34.5^a min	
